# According to patent US5780250A, “Immunoassay standards for polyaromatic hydrocarbon detection” (Strategic Diagnostics, Inc., priority 1996, dated 1998):
# How the values were obtained:
# [1] = test system: rabbit anti-PAH antisera (anti-analyte antibody on paramagnetic particles); settings: for 50% B/Bo: concentration giving mean absorbance 0.5 times that of the Diluent/Zero Standard, competitive immunoassay, 450 nm; for LDD (least detectable dose): estimated as the dose needed to generate a B/Bo of 90%
# [2] = Study of Standard Stability (B/Bo as a function of time of storage); settings: after 200 days of storage at 4° C. (FIG. 2)
# Experimental: The vials were then capped with Teflon coated caps and crimped. The vials were then separated into five groups. Each group was then placed at a different temperature (-20° C., 2°-8° C., 20°-25° C., 37° C. and 50° C.) in an upright position. Standards were tested for B/Bo at specified intervals by assaying each standard level in duplicate for each temperature. The results were then graphed as a function of time (x) versus B/Bo(y) by temperature level.
SMILES,50% B/Bo [1],LDD (least detectable dose) [1],apparent increase in B/Bo on storage [2]
c1ccc2c(c1)-c1cccc3c1c-2cc1ccccc13 [benzo(b)fluoranthene],54.2 ppb,0.91 ppb,–
c1cc2ccc3cccc4ccc(c1)c2c34 [pyrene],7.7 ppb,0.20 ppb,–
c1ccc2c(c1)cc1ccc3cccc4ccc2c1c34 [benzo(a)pyrene],6.9 ppb,0.50 ppb,–
c1ccc2cc3ccccc3cc2c1 [anthracene],11.0 ppb,0.54 ppb,–
c1ccc2c(c1)ccc1c3ccccc3ccc21 [chrysene],7.8 ppb,0.40 ppb,–
c1ccc2c(c1)Cc1ccccc1-2 [fluorene],35.2 ppb,1.65 ppb,–
"c1ccc2c(c1)ccc1ccccc12 [phenanthrene, reference compound]",16.5 ppb,0.70 ppb,25%
c1ccc2c(c1)-c1cccc3cccc-2c13 [fluoranthene],4.7 ppb,0.32 ppb,–
c1ccc2cc3c(cc2c1)-c1cccc2cccc-3c12 [benzo(k)fluoranthene],524 ppb,0.77 ppb,–
"c1ccc2cc3c(ccc4ccccc43)cc2c1 [1,2 benzoanthracene]",28.4 ppb,0.77 ppb,–
"c1ccc2c(c1)-c1ccc3ccc4cccc5cc-2c1c3c45 [indeno(1,2,3-c,d)pyrene]",27.2 ppb,0.78 ppb,–
